The results in this text go back to US7601716B2, “Pyridopyrazines and derivatives thereof as ALK and c-Met inhibitors” (Cephalon, Inc., priority 2006, dated 2009).

The target in data set [1] is T1, c-Met (phospho-c-Met) in HT29 cells (Homo sapiens, UniProt P08581).
T1 construct: endogenous in cells; host or cells: HT29, A549 (HGF-stimulated), GTL-16
As to the kind of experiment: c-Met Cellular Activity/Autophosphorylation Assay, HT29 cells. The data set is classed as cell-based. As to conditions: for inhibition at 1 µM: HT-29, 1 μM compound, read-out: c-Met autophosphorylation inhibition score, HT29 Cells (1 μM); for inhibition at 3 µM: HT-29, 3 μM compound, read-out: c-Met autophosphorylation inhibition score, HT29 Cells (3 μM). As to the method:
(§1) HT29 and GTL-16 cells were serum starved for one hour in media containing 0.05% BSA and varying concentrations of Example compounds (1-10 μM). A549 cells were serum starved overnight in media containing 0.05% BSA then treated for one hour with Example compounds followed by a 15 minute stimulation with 50 ng/mL HGF (Peprotech, Rocky Hill, N.J.), respectively. Samples were resolved by electrophoresis on a 3-8% Tris-Acetate gel (40 ma/gel) and then transferred to a nitrocellulose membrane. Membranes were blocked for one hour at room temperature in Odyssey Blocking Buffer (Licor #927-40000) diluted 1:1 with 1×TBS. Membranes were then co-incubated overnight at 4° C. with primary antibodies [total Met (Cell Signaling, #3127) and Phospho-Met (Biosource, #44-888G) 1:1000 each in Odyssey Blocking Buffer diluted 1:1 with 1×TBS-T 0.05%]. The next day, membranes were washed and co-incubated with secondary antibodies [Goat anti mouse IRDye800 (Rockland, #610-132-121) and Goat anti rabbit Alexa fluor 700 (Molecular Probes, #A21038) 1:10,000] in Odyssey Blocking Buffer diluted 1:1 with 1×TBS-T 0.05% for one hour at room temperature protected from light. Blots were then washed and read on the Odyssey Infrared Imager. Total c-Met signal was visualized at 800 nm detection and phospho-c-Met signal was visualized at 700 nm detection.

Data set [2] deals with T2, c-Met (phospho-c-Met) in GTL-16 cells (Homo sapiens, UniProt P08581).
T2 construct: endogenous in cells; host or cells: HT29, A549 (HGF-stimulated), GTL-16
Put plainly: c-Met Cellular Activity/Autophosphorylation Assay, GTL-16 cells. As to conditions: for inhibition at 1 µM: 1 μM compound, read-out: c-Met autophosphorylation inhibition score, GTL-16 Cells (1 μM); for inhibition at 3 µM: 3 μM compound, read-out: c-Met autophosphorylation inhibition score, GTL-16 Cells (3 μM). Type of data set: cell-based. As to the method: as §1

The next data set has as its target T3, NPM-ALK (Homo sapiens, UniProt Q9UM73).
T3 construct: a fusion protein consisting of nucleophosmin (NMP) and the intracellular domain of ALK; the other entry of the earlier key: NPM1 (P06748, Nucleophosmin)
Put plainly: ALK Cellular Assay (phospho-NPM-ALK immunoblot / ALK tyrosine phosphorylation ELISA). The data set is classed as cell-based. As to the method: Immunoblotting of phospho-NPM-ALK and total NPM-ALK from cell lysates was carried out according to the protocols provided by the antibody suppliers. In brief, after treatment of Example compounds, cells were lysed in Frak lysis buffer [10 mM Tris, pH 7.5, 1% Triton X-100, 50 mM sodium chloride, 20 mM sodium fluoride, 2 mM sodium pyrophosphate, 0.1% BSA, plus freshly prepared 1 mM activated sodium vanadate, 1 mM dithiothreitol (#165680050, ARCOS Organics, Geel, Belgium), and 1 mM PMSF (#837091, Boehringer Mannheim Biochemicals, Indianapolis, Ind.), protease inhibitors cocktail III (#539134-1Set, Calbiochem, 1:100 dilution)]. After brief sonication, the lysates were cleared by centrifugation, mixed with sample buffer and subjected to SDS-PAGE. Following transfer to membranes, the membranes were blotted with either rabbit phospho-NPM-ALK(Y664) (Cat^#3341) or ALK antibody (Cat^#3342) from Cell Signaling Technology (Beverly, Mass.), and then the HRP-conjugated goat anti-rabbit antibodies (Santa Cruz, Calif.) after washed in TBS/0.2% Tween-20. The protein bands were visualized with ECL Western Blotting detection reagents (RPN2106, Amersham Biosciences, Buckinghamshire, UK) and quantitated with gel-pro analyzer 3.1 software.
To measure ALK tyrosine phosphorylation in cells with an ELISA assay, fluoronunc plates (Cat^#437796, Nalge Nunc, Rochester, N.Y.) were pre-coated with goat anti-mouse IgG, and incubated with the capture mouse ALK antibody (Cat^#35-4300, Zymed, Seattle, Wash.) diluted 1:1000 in Superblock (Pierce, Rockford, Ill.). Following blocking, cell lysates were added to plates and incubated overnight at 4° C. Plates were incubated with the detecting antibody, anti-phospho-ALK (Y664) (Cell Signaling Technology), diluted at 1:2000, followed by incubation with goat anti-rabbit-IgG alkaline phosphatase to amplify the detection. Wells were exposed to the fluorogenic substrate 4-MeUP (#3368-04-5, Calbiochem) and the signal quantified using a CytoFluor® (series 4000) Fluorescence Multi-Well Plate Reader (Applied Biosystems, Foster City, Calif.).
Background: In western blotting, separated proteins are transferred to a membrane and probed.

Data set [3] addresses T4, c-Met (phospho-c-Met) in A549 cells (Homo sapiens, UniProt P08581).
T4 construct: endogenous in cells; host or cells: HT29, A549 (HGF-stimulated), GTL-16
Put plainly: c-Met Cellular Activity/Autophosphorylation Assay, A549 cells (HGF stimulated). The data set is classed as cell-based. As to conditions: 50 ng/mL HGF; for inhibition at 1 µM: 1 μM compound, read-out: c-Met autophosphorylation inhibition score, A549 Cells (1 μM); for inhibition at 3 µM: 3 μM compound, read-out: c-Met autophosphorylation inhibition score, A549 Cells (3 μM). On the procedure: as §1

Data set [4] deals with baculovirus-expressed ALK (Homo sapiens, UniProt Q9UM73). Put plainly: ALK Kinase Assay (ELISA/TRF, PLC-γ substrate). Further: 1 µM ATP (Km level). The data set is classed as biochemical. As to conditions: read-out: ALK Kinase Inhibition (IC50). In outline:
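Read-out: TRF of europium-labeled anti-phosphotyrosine antibody bound to phosphorylated GST–PLC-γ coated at 10 μg/mL. Kinase step used 30 ng/ml ALK, 37° C, 15 minutes. IC50 values fitted by nonlinear sigmoidal dose-response (variable slope).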
For orientation: ELISA stands for enzyme-linked immunosorbent assay.

For data set [5], the target named is T5, c-Met (cytoplasmic domain) (Homo sapiens, UniProt P08581).
T5 construct: Reactions were initiated with 30 ng/mL c-Met (cytoplasmic domain, Invitrogen Corporation #PV3143); purchased Invitrogen Corporation PV3143
Put plainly: c-Met Kinase Assay (ELISA/TRF, PLC-γ substrate). The data set is classed as biochemical. As to conditions: 3 μM ATP (Km level); read-out: c-Met Kinase Inhibition (IC50). The method, boiled down: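 Readout is TRF of europium anti-phosphotyrosine (PT66) bound to GST–PLC-γ substrate coated at 10 μg/mL, after a 15 min, 37 °C reaction started with 30 ng/mL c-Met cytoplasmic domain. Percent inhibition plotted against log compound concentration and fitted (variable slope) for IC50.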

pIC50: −log10 of the molar value. Bounds are passed on as bounds.

In general, inhibition refers to the drop in the measured response relative to a control, in per cent. Broadly, the pIC50 is −log10 of the IC50, conventionally taken in molar units. Usually melting point stands for the temperature of the solid-liquid transition.

Sequence of baculovirus-expressed ALK (Q9UM73 19-1620): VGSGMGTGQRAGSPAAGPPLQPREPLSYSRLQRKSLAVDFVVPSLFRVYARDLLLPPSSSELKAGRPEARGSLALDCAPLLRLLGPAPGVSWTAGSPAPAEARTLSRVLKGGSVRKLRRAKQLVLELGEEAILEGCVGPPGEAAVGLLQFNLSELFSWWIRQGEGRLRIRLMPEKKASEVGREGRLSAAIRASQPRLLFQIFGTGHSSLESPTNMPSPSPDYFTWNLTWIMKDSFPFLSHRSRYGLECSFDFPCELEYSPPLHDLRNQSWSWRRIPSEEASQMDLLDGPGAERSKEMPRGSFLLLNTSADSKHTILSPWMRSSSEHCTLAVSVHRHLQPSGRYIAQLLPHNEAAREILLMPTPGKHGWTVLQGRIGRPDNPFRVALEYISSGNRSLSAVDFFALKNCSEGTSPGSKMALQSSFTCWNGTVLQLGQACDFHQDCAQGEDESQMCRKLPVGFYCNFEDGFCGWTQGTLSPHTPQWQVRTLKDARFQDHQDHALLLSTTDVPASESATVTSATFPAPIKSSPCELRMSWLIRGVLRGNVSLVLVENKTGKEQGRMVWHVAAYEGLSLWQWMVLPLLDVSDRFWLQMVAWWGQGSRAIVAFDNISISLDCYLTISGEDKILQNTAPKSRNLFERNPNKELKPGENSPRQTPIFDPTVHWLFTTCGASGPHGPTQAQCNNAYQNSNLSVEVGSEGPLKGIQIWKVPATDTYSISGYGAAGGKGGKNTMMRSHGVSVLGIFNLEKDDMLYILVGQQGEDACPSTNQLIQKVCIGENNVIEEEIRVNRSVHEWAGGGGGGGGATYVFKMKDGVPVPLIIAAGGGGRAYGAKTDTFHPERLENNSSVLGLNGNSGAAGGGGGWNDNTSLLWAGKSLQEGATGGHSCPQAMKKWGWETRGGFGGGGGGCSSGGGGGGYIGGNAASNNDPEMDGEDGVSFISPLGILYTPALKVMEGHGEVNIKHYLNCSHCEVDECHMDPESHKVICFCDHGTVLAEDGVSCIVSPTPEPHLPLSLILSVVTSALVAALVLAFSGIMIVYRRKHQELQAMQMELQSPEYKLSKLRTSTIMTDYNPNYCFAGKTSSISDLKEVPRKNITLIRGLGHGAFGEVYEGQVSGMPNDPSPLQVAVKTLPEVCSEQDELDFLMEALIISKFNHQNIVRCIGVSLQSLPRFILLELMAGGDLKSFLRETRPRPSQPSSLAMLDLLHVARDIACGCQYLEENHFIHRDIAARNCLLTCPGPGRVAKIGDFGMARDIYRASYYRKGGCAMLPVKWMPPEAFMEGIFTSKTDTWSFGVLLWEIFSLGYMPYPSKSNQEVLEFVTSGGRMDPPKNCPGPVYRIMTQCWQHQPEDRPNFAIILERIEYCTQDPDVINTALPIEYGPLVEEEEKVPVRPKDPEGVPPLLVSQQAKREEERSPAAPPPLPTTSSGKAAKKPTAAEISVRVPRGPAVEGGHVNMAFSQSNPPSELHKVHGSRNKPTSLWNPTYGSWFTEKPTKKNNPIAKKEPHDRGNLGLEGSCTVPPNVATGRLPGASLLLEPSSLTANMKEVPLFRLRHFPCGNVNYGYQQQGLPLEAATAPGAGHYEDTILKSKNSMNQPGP
T3 sequence (Q9UM73 with tags, fused parts or gaps): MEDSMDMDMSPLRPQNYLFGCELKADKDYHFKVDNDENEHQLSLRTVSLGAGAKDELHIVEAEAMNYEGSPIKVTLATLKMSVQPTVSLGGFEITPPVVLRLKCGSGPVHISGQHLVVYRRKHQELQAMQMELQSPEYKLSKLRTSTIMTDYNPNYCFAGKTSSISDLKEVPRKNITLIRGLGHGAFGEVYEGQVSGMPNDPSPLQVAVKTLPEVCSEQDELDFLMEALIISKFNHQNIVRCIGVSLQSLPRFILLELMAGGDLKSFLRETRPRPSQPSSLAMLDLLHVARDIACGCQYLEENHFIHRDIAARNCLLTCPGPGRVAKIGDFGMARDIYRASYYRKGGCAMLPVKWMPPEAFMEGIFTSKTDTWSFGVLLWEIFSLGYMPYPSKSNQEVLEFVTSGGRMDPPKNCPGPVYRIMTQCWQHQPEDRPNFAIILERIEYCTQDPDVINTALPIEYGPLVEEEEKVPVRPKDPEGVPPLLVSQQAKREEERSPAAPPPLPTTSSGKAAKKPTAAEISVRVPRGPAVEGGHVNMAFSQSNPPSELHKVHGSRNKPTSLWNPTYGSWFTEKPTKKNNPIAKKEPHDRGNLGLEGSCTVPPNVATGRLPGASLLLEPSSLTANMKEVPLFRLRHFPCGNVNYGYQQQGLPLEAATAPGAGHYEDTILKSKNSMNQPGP
T5 sequence (P08581 956-1390 limits assumed): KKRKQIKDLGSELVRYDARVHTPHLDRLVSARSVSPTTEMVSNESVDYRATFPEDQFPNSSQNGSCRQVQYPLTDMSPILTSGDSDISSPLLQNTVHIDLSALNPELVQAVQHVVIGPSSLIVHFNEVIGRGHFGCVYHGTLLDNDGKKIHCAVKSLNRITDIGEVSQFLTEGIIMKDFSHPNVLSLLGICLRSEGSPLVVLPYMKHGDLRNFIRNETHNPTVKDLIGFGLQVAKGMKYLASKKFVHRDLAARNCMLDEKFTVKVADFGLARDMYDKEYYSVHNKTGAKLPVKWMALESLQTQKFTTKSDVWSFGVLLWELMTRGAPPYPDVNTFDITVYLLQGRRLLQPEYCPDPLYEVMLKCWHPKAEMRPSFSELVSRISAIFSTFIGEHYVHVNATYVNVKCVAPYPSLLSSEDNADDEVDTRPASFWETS
T1 sequence (P08581 25-1390): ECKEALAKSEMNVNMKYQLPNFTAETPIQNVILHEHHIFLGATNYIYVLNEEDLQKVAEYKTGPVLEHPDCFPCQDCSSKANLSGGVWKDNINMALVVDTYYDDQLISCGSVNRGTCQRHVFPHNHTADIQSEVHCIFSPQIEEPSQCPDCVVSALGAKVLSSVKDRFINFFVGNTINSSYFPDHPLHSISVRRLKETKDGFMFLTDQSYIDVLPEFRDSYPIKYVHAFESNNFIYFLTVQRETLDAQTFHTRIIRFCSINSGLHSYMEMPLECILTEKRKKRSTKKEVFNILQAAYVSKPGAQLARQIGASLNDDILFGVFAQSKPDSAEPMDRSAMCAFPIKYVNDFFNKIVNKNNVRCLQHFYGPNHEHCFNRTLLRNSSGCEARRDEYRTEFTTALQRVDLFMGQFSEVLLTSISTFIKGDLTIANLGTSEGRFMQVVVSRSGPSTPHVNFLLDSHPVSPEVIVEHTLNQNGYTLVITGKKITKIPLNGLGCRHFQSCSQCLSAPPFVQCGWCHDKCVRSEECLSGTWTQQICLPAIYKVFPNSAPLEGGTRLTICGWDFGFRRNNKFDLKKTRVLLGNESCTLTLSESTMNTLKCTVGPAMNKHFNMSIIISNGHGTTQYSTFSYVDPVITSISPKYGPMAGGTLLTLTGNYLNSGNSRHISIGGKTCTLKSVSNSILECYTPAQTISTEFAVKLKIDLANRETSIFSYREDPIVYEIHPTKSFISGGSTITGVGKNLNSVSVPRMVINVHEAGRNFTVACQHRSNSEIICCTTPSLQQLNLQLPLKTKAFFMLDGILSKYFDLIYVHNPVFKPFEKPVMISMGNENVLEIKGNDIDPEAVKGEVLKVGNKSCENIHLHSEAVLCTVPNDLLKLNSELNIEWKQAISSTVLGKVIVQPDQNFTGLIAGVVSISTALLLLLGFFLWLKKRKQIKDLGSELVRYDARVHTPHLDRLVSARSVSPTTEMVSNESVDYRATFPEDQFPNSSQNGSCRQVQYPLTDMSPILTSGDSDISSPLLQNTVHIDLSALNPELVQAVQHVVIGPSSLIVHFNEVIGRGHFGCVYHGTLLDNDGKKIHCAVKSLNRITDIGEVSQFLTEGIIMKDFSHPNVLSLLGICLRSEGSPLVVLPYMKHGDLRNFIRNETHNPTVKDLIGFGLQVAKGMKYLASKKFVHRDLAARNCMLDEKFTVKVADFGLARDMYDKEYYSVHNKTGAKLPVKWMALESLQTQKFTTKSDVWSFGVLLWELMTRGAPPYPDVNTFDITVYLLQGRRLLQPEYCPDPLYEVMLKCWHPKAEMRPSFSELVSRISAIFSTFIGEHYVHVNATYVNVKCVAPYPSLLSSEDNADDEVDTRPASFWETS

On to `CN1CCN(c2ccc(-c3cnc4c(c3)N(Cc3c(F)ccc(F)c3Cl)CCN4)cn2)CC1` [Example 185, 1-(2-Chloro-3,6-difluorobenzyl)-7-[6-(4-methylpiperazin-1-yl)pyridin-3-yl]-1,2,3,4-tetrahydropyrido[2,3-b]pyrazine], for which, in data set [1], the inhibition at 1 µM was 51 to 75% and the inhibition at 3 µM lay within 76 to 100%. In data set [2], the inhibition at 1 µM lay within 0 to 25% and the inhibition at 3 µM lay in the range of 0 to 25%.

`CN1CCN(c2ccc(-c3cnc4c(c3)N(Cc3cc(F)ccc3F)CCN4)cn2)CC1` [Example 69, 1-(2,5-Difluorobenzyl)-7-[6-(4-methylpiperazin-1-yl)pyridin-3-yl]-1,2,3,4-tetrahydropyrido[2,3-b]pyrazine]: the melting point fell in the range of 192 to 193 °C. Also, in data set [1], the inhibition at 1 µM was 0 to 25% and the inhibition at 3 µM was 0 to 25%. This compound showed a pIC50 against NPM-ALK of 6.00 to 6.12. Further, in data set [3], the inhibition at 1 µM was 0 to 25% and the inhibition at 3 µM was 0 to 25%. Further, the pIC50 in data set [4] is above 7.00. Also, in data set [5], the pIC50 was 5.00 to 6.00.

Compound `O=C(c1ccc(-c2cnc3c(c2)N(Cc2c(F)ccc(F)c2Cl)CCN3)cc1)N1CCC(N2CCCC2)CC1` [Example 99, {4-[1-(2-Chloro-3,6-difluorobenzyl)-1,2,3,4-tetrahydropyrido[2,3-b]pyrazin-7-yl]phenyl}-(4-(pyrrolidin-1-yl)piperidin-1-yl)methanone] yielded a melting point of 93 to 95 °C. In data set [1], the inhibition at 1 µM lay in the range of 0 to 25% and the inhibition at 3 µM lay in the range of 0 to 25%. The same compound gave a pIC50 against NPM-ALK of at least 6.60. Moreover, in data set [3], the inhibition at 1 µM is 0 to 25% and the inhibition at 3 µM was in the range of 0 to 25%. Further, the pIC50 in data set [4] was above 7.00. Also, the pIC50 in data set [5] was 6.00 to 7.00.

The compound `Fc1ccc(F)c(CN2CCNc3ncc(-c4ccnc(N5CCOCC5)c4)cc32)c1Cl` [Example 186, 1-(2-Chloro-3,6-difluorobenzyl)-7-(2-morpholin-4-yl-pyridin-4-yl)-1,2,3,4-tetrahydropyrido[2,3-b]pyrazine] showed a melting point of 157 °C. In addition, in data set [1], the inhibition at 1 µM was in the range of 26 to 50% and the inhibition at 3 µM is 26 to 50%. In addition, the pIC50 at NPM-ALK is at least 6.60. Moreover, the pIC50 in data set [4] is above 7.00. Further, the negative logarithm of the IC50 (pIC50) in data set [5] was 5.00 to 6.00. Besides, in data set [2], the inhibition at 1 µM was in the range of 0 to 25% and the inhibition at 3 µM fell in the range of 0 to 25%.

As to `O=C1CNc2ncc(-c3ccc(C(=O)N4CCC[C@H]4CN4CCCC4)cc3)cc2N1Cc1cc(Cl)ccc1Cl` [Example 157, S-1-(2,5-Dichlorobenzyl)-7-[4-(2-[(pyrrolidin-1-yl)methyl]pyrrolidine-1-carbonyl)phenyl]-3,4-dihydro-1H-pyrido[2,3-b]pyrazin-2-one], the melting point was 180 °C. In data set [1], the inhibition at 1 µM lay within 0 to 25% and the inhibition at 3 µM fell in the range of 26 to 50%. The same compound had a pIC50 at NPM-ALK of 6.30 to 6.60. In addition, in data set [3], the inhibition at 1 µM lay within 0 to 25% and the inhibition at 3 µM lay in the range of 0 to 25%. In addition, in data set [4], the pIC50 was above 7.00. In addition, the pIC50 in data set [5] was 6.00 to 7.00.

On to `O=C(c1ccc(-c2cnc3c(c2)N(Cc2cc(Cl)ccc2Cl)CCN3)cc1)N1CCC[C@H]1CN1CCCC1` [Example 159, S-{4-[1-(2,5-Dichlorobenzyl)-1,2,3,4-tetrahydropyrido[2,3-b]pyrazin-7-yl]phenyl}-{2-[(pyrrolidin-1-yl)methyl]pyrrolidin-1-yl}methanone], for which the inhibition at 1 µM in data set [1] and in data set [3] was 0 to 25% in each case. The inhibition at 3 µM in data set [1] and in data set [3] was 0 to 25% each time. For the same compound, the pIC50 was 6.30 to 6.60 on NPM-ALK, above 7.00 in data set [4] and 5.00 to 6.00 in data set [5].
